target: T1, MCH receptor (Homo sapiens, UniProt Q99705); experiment: MCH Receptor Binding Assay; conditions: [125I]-MCH, SPA, membranes from CHO cells expressing the MCH receptor
T1 construct: expressed in transfected cells; host or cells: CHO cells
Method: Membranes from CHO cells expressing the MCH receptor were prepared by lysing cells with 5 mM HEPES for 15 min at 4C. Cell lysates were centrifuged ([…], 15 min) and the pellet was re-suspended in 5 mM HEPES. For each 96-well plate (Microlite, Dynex Technologies), 1 mg of cell membranes were incubated with 10 mg of wheat germ agglutinin SPA beads (Amersham) for 5 min at 4 C in a volume of 10 ml of binding buffer (25 mM HEPES, 10 mM MGCl2, 10 mM NaCl, 5 mM MnCl2, 0.1% BSA). The membrane/bead mixture was centrifuged (1500×g, 3.5 min), the supernatant was aspirated, and the pellet was re-suspended in 10 ml binding buffer. The centrifugation, aspiration and re-suspension were then repeated. The membrane/bead mixture (100 μl) was then added to 96-well plates containing 50 μl of 500 pM [^125I]-MCH (NEN) and […] of the appropriate concentration of compound (4× the desired final concentration). Nonspecific binding was determined by including 1 μM MCH in the binding reaction. The binding reaction was incubated at room temperature for 2 h. Plates were then analyzed in a TOPCOUNT microplate scintillation counter (Packard). Data was analyzed and Ki values were determined using GraphPad Prism.

T1 sequence (Q99705 whole entry): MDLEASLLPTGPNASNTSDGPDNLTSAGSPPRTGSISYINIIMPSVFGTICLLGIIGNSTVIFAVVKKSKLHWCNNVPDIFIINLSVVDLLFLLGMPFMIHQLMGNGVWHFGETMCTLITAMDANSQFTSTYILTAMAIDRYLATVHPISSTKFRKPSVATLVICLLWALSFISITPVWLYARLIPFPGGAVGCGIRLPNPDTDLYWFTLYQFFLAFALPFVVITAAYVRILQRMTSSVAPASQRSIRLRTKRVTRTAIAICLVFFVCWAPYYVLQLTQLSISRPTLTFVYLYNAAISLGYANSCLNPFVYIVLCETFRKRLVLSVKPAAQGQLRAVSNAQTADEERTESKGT

Ki [nM] | Compound
8.6 | CN(CC(=O)Nc1cc(Cl)cc(Cl)c1)C1(c2ccc(-c3cccc(C#N)c3)cc2)CCN(C2CCCC2)CC1
77 | COc1cccc(-c2ccc(C3(NCC(=O)Nc4ccc(F)c(Cl)c4)CCN(C4CCCC4)CC3)cc2)c1

Compound | Ki [nM]
CS(=O)(=O)c1ccc(CN2CCC(OCC(=O)Nc3cc(Cl)cc(Cl)c3)(c3ccc(-c4cccc(C#N)c4)cc3)CC2)cc1 | 76
